Read-outs that look alike come from different tables or passages of the source.
Tested on: SARS-CoV-2-specific CD4+ T cells (OX40+CD137+) in PBMC
Assay type: cell-based, human
[1] = CD4+ T cell epitopes identified by AIM assay, percent of tested donors responding
[2] = CD4+ T cell epitopes identified by AIM assay, sum of response per responding donor
[3] = CD4+ T cell epitopes identified by AIM assay, total response summed over donors
[4] = CD4+ T cell epitopes identified by AIM assay, share of donors responding
[5] = CD4+ T cell epitopes identified by AIM assay, total response

| Sequence | Frequency of response (%) | Magnitude by # of responding donors | Sum of response | Frequency of response (%) [1] [%] | Magnitude by # of responding donors [2] | Sum of response [3] | Frequency of response (%) [4] [%] | Sum of response [5] |
| --- | --- | --- | --- | --- | --- | --- | --- | --- |
| CLVGLMWLSYFIASF | 33 | 295 | 1181 | – | – | – | – | – |
| KKRWQLALSKGVHFV [SEQ ID NO 250] | – | – | – | 18 | 144 | 287 | – | – |
| YSRYRIGNYKLNTDH | – | – | – | – | 276 | – | 15 | 551 |
| FIASFRLFARTRSMW | – | – | – | – | 353 | – | 8 | 353 |
| HTTDPSFLGRYMSAL | – | – | – | – | 2461 | – | 18 | 4921 |
| RRGPEQTQGNFGDQE | – | – | – | – | 518 | – | 8 | 518 |
| KIITLKKRWQLALSK | – | – | – | – | 120 | – | 9 | 120 |
| PRWYFYYLGTGPEAG | – | – | – | – | 750 | – | 7 | 750 |
| EHVTFFIYNKIVDEP | – | – | – | – | 139 | – | 14 | 277 |
| LTQYNRYLALYNKYK | – | – | – | – | 638 | – | 8 | 638 |
| ASAFFGMSRIGMEVT | – | – | – | – | 337 | – | 8 | 337 |
| LLFNKVTLADAGFIK | – | – | – | – | 297 | – | 8 | 297 |
| TNSRIKASMPTTIAK | – | – | – | – | 360 | – | 8 | 360 |
| RAMPNMLRIMASLVL | – | – | – | – | 144 | – | 7 | 144 |
| SVLHSTQDLFLPFFS | – | – | – | – | 305 | – | 15 | 609 |
| VLAAVYRINWITGGI | – | – | – | – | 504 | – | 42 | 2519 |
| QFAYANRNRFLYIIK | – | – | – | – | 326 | – | 20 | 978 |
| MAAYVDNSSLTIKKP | – | – | – | – | 185 | – | 7 | 185 |
| NLLLQYGSFCTQLNR | – | – | – | 31 | 1140 | 4560 | – | – |
| FKIYSKHTPINLVRD | – | – | – | – | 484 | – | 18 | 967 |
| TDEMIAQYTSALLAG | – | – | – | – | 745 | – | 9 | 745 |
| TFTRSTNSRIKASMP | – | – | – | – | 120 | – | 8 | 120 |
| LGVYYHKNNKSWMES | – | – | – | – | 259 | – | 9 | 259 |
| YRINWITGGIAIAMA | – | – | – | – | 345 | – | 58 | 2417 |
| VYYPDKVFRSSVLHS | – | – | – | – | 198 | – | 15 | 395 |
| SALEPLVDLPIGINI | – | – | – | – | 167 | – | 9 | 167 |

| Sequence | Frequency of response (%) | Magnitude by # of responding donors | Sum of response | Frequency of response (%) [1] [%] | Magnitude by # of responding donors [2] | Sum of response [3] | Frequency of response (%) [4] [%] | Sum of response [5] |
| --- | --- | --- | --- | --- | --- | --- | --- | --- |
| YIRVGARKSAPLIEL [SEQ ID NO 256] | – | – | – | 18 | 366 | 731 | – | – |
| AQYTSALLAGTITSG | – | – | – | 9 | 336 | 336 | – | – |
| ARDLICAQKFNGLTV | – | – | – | – | 232 | – | 8 | 232 |
| PCPIHFYSKWYIRVG | 55 | 491 | 2948 | – | – | – | – | – |
| RFASVYAWNRKRISN | – | – | – | – | 241 | – | 27 | 722 |
| DFLEYHDVRVVLDFI | – | – | – | – | 341 | – | 18 | 681 |
| SASFSTFKCYGVSPT | – | – | – | – | 294 | – | 8 | 294 |
| TLRVEAFEYYHTTDP | – | – | – | – | 318 | – | 18 | 635 |
| IGNYKLNTDHSSSSD | – | – | – | – | 134 | – | 15 | 267 |
| GGDGKMKDLSPRWYF | – | – | – | – | 148 | – | 15 | 295 |
| CTFEYVSQPFLMDLE | – | – | – | 64 | 619 | 4332 | – | – |
| ESDDYIATNGPLKVG | – | – | – | – | 133 | – | 8 | 133 |
| LPYGANKDGIIWVAT | – | – | – | – | 418 | – | 14 | 835 |
| AVITREVGFVVPGLP | – | – | – | – | 682 | – | 9 | 682 |
| LGASQRVAGDSGFAA | – | – | – | – | 491 | – | 15 | 981 |
| GMEVTPSGTWLTYTG | – | – | – | – | 380 | – | 8 | 380 |
| LPDPSKPSKRSFIED | – | – | – | – | 109 | – | 8 | 109 |
| GKQGNFKNLREFVFK | – | – | – | – | 129 | – | 9 | 129 |
| AVTANVNALLSTDGN | – | – | – | – | 201 | – | 7 | 201 |
| IATNGPLKVGGSCVL | – | – | – | – | 112 | – | 8 | 112 |
| VNLTTRTQLPPAYTN | – | – | – | – | 170 | – | 8 | 170 |
| FNICQAVTANVNALL | – | – | – | – | 220 | – | 6 | 220 |
| TQLNRALTGIAVEQD | – | – | – | 8 | 260 | 260 | – | – |
| VSSQCVNLTTRTQLP | – | – | – | – | 274 | – | 8 | 274 |
| FGDQELIRQGTDYKH | – | – | – | – | 281 | – | 8 | 281 |
| LTYTGAIKLDDKDPN | – | – | – | – | 742 | – | 17 | 1484 |

| Sequence | Frequency of response (%) | Magnitude by # of responding donors | Sum of response | Frequency of response (%) [1] [%] | Magnitude by # of responding donors [2] | Sum of response [3] | Frequency of response (%) [4] [%] | Sum of response [5] |
| --- | --- | --- | --- | --- | --- | --- | --- | --- |
| FKDQVILLNKHIDAY | – | – | – | – | 446 | – | 33 | 1785 |
| NLVIGFLFLTWICLL | – | – | – | – | 261 | – | 7 | 261 |
| SELVIGAVILRGHLR | 33 | 141 | 563 | – | – | – | – | – |
| NFSQILPDPSKPSKR | – | – | – | 33 | 647 | 2589 | – | – |
| VWHVNNATNKATYKP | – | – | – | – | 158 | – | 8 | 158 |
| HCANFNVLFSTVFPP | – | – | – | – | 211 | – | 7 | 211 |
| YCIDGALLTKSSEYK | – | – | – | – | 119 | – | 7 | 119 |
| CVADYSVLYNSASFS | – | – | – | – | 210 | – | 8 | 210 |
| LPNDDTLRVEAFEYY | – | – | – | – | 162 | – | 9 | 162 |
| LLWPVTLACFVLAAV | – | – | – | – | 260 | – | 17 | 520 |
| SIVAGGIVAIVVTCL | – | – | – | – | 109 | – | 9 | 109 |
| IRGWIFGTTLDSKTQ | – | – | – | – | 327 | – | 9 | 327 |
| EDFLEYHDVRVVLDF | – | – | – | – | 571 | – | 18 | 1141 |
| HKNNKSWMESEFRVY | – | – | – | – | 572 | – | 9 | 572 |
| TNCYDYCIPYNSVTS | – | – | – | – | 402 | – | 7 | 402 |
| FIYNKIVDEPEEHVQ | – | – | – | – | 243 | – | 14 | 486 |
| NIDGYFKIYSKHTPI | – | – | – | – | 295 | – | 45 | 1475 |
| FPRGQGVPINTNSSP | – | – | – | – | 397 | – | 8 | 397 |
| VNARLRAKHYVYIGD | – | – | – | – | 116 | – | 8 | 116 |
| VVLSFELLHAPATVC | – | – | – | – | 317 | – | 7 | 317 |
| GINASVVNIQKEIDR | – | – | – | 8 | 267 | 267 | – | – |
| TFGGPSDSTGSNQNG | – | – | – | – | 291 | – | 6 | 291 |
| FGTTLDSKTQSLLIV | – | – | – | – | 174 | – | 9 | 174 |
| LPQGFSALEPLVDLP | – | – | – | – | 418 | – | 18 | 836 |
